{"source": "patent US20050282757A1", "about": "“Peptide boronic acid compounds useful in anticoagulation” (Trigen Limited, priority 2002, published 2005)", "key": {"Plasmin": {"target": "Plasmin (Homo sapiens, UniProt P00747)", "sequence (P00747 581-810 limits assumed, species assumed)": "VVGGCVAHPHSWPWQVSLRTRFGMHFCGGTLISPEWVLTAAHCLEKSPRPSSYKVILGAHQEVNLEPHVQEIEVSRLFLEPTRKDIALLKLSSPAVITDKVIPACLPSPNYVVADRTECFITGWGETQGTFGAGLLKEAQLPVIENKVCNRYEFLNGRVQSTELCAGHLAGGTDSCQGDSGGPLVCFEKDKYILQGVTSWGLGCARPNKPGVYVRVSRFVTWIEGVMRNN", "sequence (P00747 97-580 limits assumed, species assumed)": "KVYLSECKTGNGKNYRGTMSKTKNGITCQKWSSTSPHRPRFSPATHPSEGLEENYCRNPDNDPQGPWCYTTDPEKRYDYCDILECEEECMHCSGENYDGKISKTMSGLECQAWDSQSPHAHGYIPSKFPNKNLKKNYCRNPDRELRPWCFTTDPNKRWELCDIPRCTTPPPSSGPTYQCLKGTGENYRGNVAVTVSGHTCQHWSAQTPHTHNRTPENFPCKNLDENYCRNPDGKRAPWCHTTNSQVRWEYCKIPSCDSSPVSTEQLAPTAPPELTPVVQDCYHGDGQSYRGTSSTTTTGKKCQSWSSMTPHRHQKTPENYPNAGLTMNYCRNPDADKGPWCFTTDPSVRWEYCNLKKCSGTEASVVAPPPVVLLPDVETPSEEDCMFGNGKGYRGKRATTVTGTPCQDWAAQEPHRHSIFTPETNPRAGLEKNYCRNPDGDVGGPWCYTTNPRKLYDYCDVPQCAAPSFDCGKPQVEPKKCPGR", "assay": "Plasmin inhibition, Method B (Example 52)", "type": "biochemical", "conditions": "Plasmin relative to Thrombin", "experimental": "50 μl Plasmin (75 ng/ml in assay buffer) and 20 μl vehicle or compound solution were added to 110 μl assay buffer (100 mM Na orthophosphate (80% Na2HPO4 and 20% NaH2PO4), 200 mM NaCl, 0.5% PEG 6000, 0.02% Na azide, pH 7.5) and incubated for 5 minutes at 37° C."}, "[1]": {"assay": "Comparative storage stability of sodium and calcium salts (Example 49)", "type": "physicochemical", "conditions": "for Tri50c (w/w %, LOD corr.): corrected for loss on drying", "source_text": "In both studies the active pharmaceutical ingredient was stored in grip sealed double bags within a PE/PP screw cap closed cylinder."}, "[2]": {"test_system": "dynamic coagulation markers", "assay": "Simulated mitral valve repair on hypothermic CPB in dogs (Example 48)", "type": "in vivo, beagle dogs", "conditions": "intravenous", "experimental": "Following a dose ranging study in conscious dogs, six beagle dogs were placed on CPB and underwent a simulated mitral valve repair. A range of dynamic coagulation markers were measured, including thrombin clotting time (TT), activated partial thromboplastin time (APTT), activated clotting time (ACT), ecarin clotting time (ECT), whole blood thrombin clotting time, platelet counts and function tests. In addition, pre and post-operative echocardiograms and intra-operative blood loss were evaluated. […] By virtue of its predictable anticoagulant efficacy and controlled duration of action, TGN 255 offers potential in on pump and off pump coronary bypass procedures."}, "[3]": {"assay": "Solubility of TRI 50c monosodium salt at different pH values", "type": "physicochemical", "experimental": "It may be desirable to make aqueous solutions of boronic acid drugs for administering them. […] However, a solution with a pH of 9.5 may be unacceptable or undesirable. Accordingly, a pharmaceutically acceptable organic acid may be included in the particulate formulation in an amount selected to reduce the pH to a value at which the solution is more acceptable but at which a solution of drinkable quantity (e.g. about 50 ml to about 150 ml) may be formed by reconstituting the particulate formulation. As the organic acid may be mentioned citric acid, tartaric acid or malic acid, for example. In many instances, citric acid is chosen.\nIn a first series of experiments, this amount of the salt was dissolved in 50 ml water to form a solution of approximately pH 9.5. Dilute aqueous HCl was added to determine how much the pH could be reduced before precipitation occurred.\nIn a second series of experiments, the same amount of the salt was dissolved in 150 ml water, and citric acid was added. […] Since acid solutions tend to be more palatable than alkaline ones, and citric acid is a common flavouring agent, this behaviour of the salt is highly beneficial. […] In general, it is contemplated that the boronate will be formulated to form a reconstituted solution having a pH of from 4 to 8, e.g. 4 to 7, optionally 5 to 6."}, "[4]": {"assay": "Excretion of administered dose", "conditions": "in vivo", "source_text": "It will be appreciated that such short duration of action (rapid offset of activity) achieved by a boronic acid is well suited for the prevention of thrombosis in intermittent apheresis procedures, and that oral administration is particularly useful in the case of elective intermittent apheresis procedures. In one class of embodiments, the apheresis procedure is haemodialysis (strictly CIHD); in another, the procedure is not haemodialysis."}, "[5]": {"assay": "Stability assay before and after drying, HPLC-PDA (Example 34)", "type": "physicochemical", "conditions": "for Amount: 5 mg in 5 mL", "experimental": "An assay of TRI 50c and its sodium and lysine salts before and after drying.\nFor sample analysis, 5 mg of dried and non-dried material was weighed in a 5 mL volumetric flask and dissolved in 1 mL acetonitrile and filled up with demineralised water to 5 mL.\nThe quantitative evaluation was performed using an HPLC-PDA method."}, "thrombin time (TT)": {"test_system": "thrombin time (TT)", "assay": "Intravenous administration into humans (Examples 40 and 46)", "type": "in vivo", "experimental": "The test consisted of three groups, each of six males. From each group 5 men were given the active ingredient and 1 was given a placebo.\nTotal I.V. administered doses were: • 82 mg (7 mg intravenous bolus (over 30s) followed by an infusion of 25 mg/h for 3 hours). • 130 mg (10 mg intravenous bolus (over 30s) followed by an infusion of 40 mg/h for 3 hours). • 120 mg (by infusion of 40 mg/h for 3 hours). […] Within 30 minutes after cessation of infusion there was a fall to a level at which clinically significant anticoagulation is not expected."}, "thrombin time and APTT": {"test_system": "thrombin time and APTT", "assay": "Intravenous administration in beagle dogs, PK/PD (Example 36)", "type": "in vivo", "conditions": "1.0 mg/kg i.v.; for thrombin time at pharmacodynamic C max: 2 minutes post dose, base line 14.3 seconds, monosodium salt", "experimental": "Blood samples were taken into 3.8% tri-sodium citrate (1+8) at pre dose, 2, 5, 10, 20, 30, minutes post dose and then at 1, 2, 3, 4, 6, 8, 12 and 24 hours post dose. Plasma was prepared by centrifugation and frozen at minus 20° C. pending analysis."}, "[6]": {"conditions": "dry (1 week in desiccator over phosphorus pentoxide)"}}, "data": [{"smiles": "COCCC[C@H](NC(=O)[C@@H]1CCCN1C(=O)[C@@H](Cc1ccc(F)cc1)NC(=O)OCc1ccccc1)B([O-])O.[Na+]", "note": "[TRI 50f]", "values": [{"measurement": "Selectivity", "setting": "Plasmin", "value": ">1000"}]}, {"smiles": "COCCC[C@H](NC(=O)[C@@H]1CCCN1C(=O)[C@@H](Cc1ccccc1)NC(=O)OCc1ccccc1)B(O)O.[Na+]", "note": "[TRI 50c monosodium salt, Cbz-(R)-Phe-(S)-Pro-(R)-Mpg-B(OH)2 monosodium salt]", "values": [{"measurement": "Appearance", "setting": "[1]; T = 0", "value": "Powdery"}, {"measurement": "Color", "setting": "[1]; T = 0", "value": "White"}, {"measurement": "Tri50c (w/w %)", "setting": "[1]; T = 0", "value": 101.1, "unit": "w/w %"}, {"measurement": "Tri50c (w/w %, LOD corr.)", "setting": "[1]; T = 0", "value": 101.5, "unit": "w/w %"}, {"measurement": "Appearance", "setting": "[1]; T = 1, 25° C./60% r.h.", "value": "powdery"}, {"measurement": "Color", "setting": "[1]; T = 1, 25° C./60% r.h.", "value": "white"}, {"measurement": "Tri50c (w/w %)", "setting": "[1]; T = 1, 25° C./60% r.h.", "value": 99.5, "unit": "w/w %"}, {"measurement": "Tri50c (w/w %, LOD corr.)", "setting": "[1]; T = 1, 25° C./60% r.h.", "value": 103.6, "unit": "w/w %"}, {"measurement": "Appearance", "setting": "[1]; T = 1, 40° C./75% r.h.", "value": "powdery"}, {"measurement": "Color", "setting": "[1]; T = 1, 40° C./75% r.h.", "value": "white"}, {"measurement": "Tri50c (w/w %)", "setting": "[1]; T = 1, 40° C./75% r.h.", "value": 90.3, "unit": "w/w %"}, {"measurement": "Tri50c (w/w %, LOD corr.)", "setting": "[1]; T = 1, 40° C./75% r.h.", "value": 94.5, "unit": "w/w %"}, {"measurement": "Appearance", "setting": "[1]; T = 1, −20° C.", "value": "powdery"}, {"measurement": "Color", "setting": "[1]; T = 1, −20° C.", "value": "white"}, {"measurement": "Tri50c (w/w %)", "setting": "[1]; T = 1, −20° C.", "value": 103.1, "unit": "w/w %"}, {"measurement": "Tri50c (w/w %, LOD corr.)", "setting": "[1]; T = 1, −20° C.", "value": 104.3, "unit": "w/w %"}, {"measurement": "Appearance", "setting": "[1]; T = 3, 25° C./60% r.h.", "value": "powdery"}, {"measurement": "Color", "setting": "[1]; T = 3, 25° C./60% r.h.", "value": "white"}, {"measurement": "Tri50c (w/w %)", "setting": "[1]; T = 3, 25° C./60% r.h.", "value": 95.3, "unit": "w/w %"}, {"measurement": "Tri50c (w/w %, LOD corr.)", "setting": "[1]; T = 3, 25° C./60% r.h.", "value": 100.4, "unit": "w/w %"}, {"measurement": "Appearance", "setting": "[1]; T = 3, 40° C./75% r.h.", "value": "viscous"}, {"measurement": "Color", "setting": "[1]; T = 3, 40° C./75% r.h.", "value": "brown"}, {"measurement": "Tri50c (w/w %)", "setting": "[1]; T = 3, 40° C./75% r.h.", "value": 48.6, "unit": "w/w %"}, {"measurement": "Tri50c (w/w %, LOD corr.)", "setting": "[1]; T = 3, 40° C./75% r.h.", "value": 52.2, "unit": "w/w %"}, {"measurement": "Appearance", "setting": "[1]; T = 3, −20° C.", "value": "powdery"}, {"measurement": "Color", "setting": "[1]; T = 3, −20° C.", "value": "white"}, {"measurement": "Tri50c (w/w %)", "setting": "[1]; T = 3, −20° C.", "value": 102.5, "unit": "w/w %"}, {"measurement": "Tri50c (w/w %)", "setting": "[1]; T = 12, 25° C./60% r.h.", "value": 70.5, "unit": "w/w %"}, {"measurement": "Tri50c (w/w %, LOD corr.)", "setting": "[1]; T = 12, 25° C./60% r.h.", "value": 71.2, "unit": "w/w %"}, {"measurement": "anticoagulation during bypass and surgery", "setting": "[2]", "value": "excellent anticoagulation during bypass and surgery with little bleeding"}, {"measurement": "concentration of boronate salt solution that can be formed", "setting": "[3]; pH of about 9.5", "value": "up to 600 mg/ml"}, {"measurement": "pH below which the salt tended to precipitate", "setting": "[3]; salt equivalent to 600 mg TRI 50c in 50 ml water, dilute aqueous HCl added", "value": "below 9"}, {"measurement": "pH reached before precipitation occurred", "setting": "[3]; salt equivalent to 600 mg TRI 50c in 150 ml water, citric acid added", "value": "3.7-3.8"}, {"measurement": "administered dose excreted as TRI 50c species (acid and corresponding boronate species)", "setting": "[4]", "value": 14, "unit": "%"}, {"measurement": "Purity", "setting": "[5]; [6]", "value": 98.81, "unit": "% area"}, {"measurement": "Amount", "setting": "[5]; [6]", "value": 1024, "unit": "µg/mL"}, {"measurement": "Purity", "setting": "[5]; non-dried", "value": 98.61, "unit": "% area"}, {"measurement": "Amount", "setting": "[5]; non-dried", "value": 1005.8, "unit": "µg/mL"}, {"measurement": "time for plasma concentrations of the active principle to return to tolerably low levels", "setting": "thrombin time (TT); after termination of intravenous administration", "value": "≤ 30", "unit": "min"}, {"measurement": "time after cessation of infusion to fall to a level at which clinically significant anticoagulation is not expected", "setting": "thrombin time (TT); i.v. infusion", "value": "≤ 30", "unit": "min"}, {"measurement": "distribution phase, time after the end of infusion", "setting": "thrombin time (TT); i.v. infusion for 3 hours", "value": "≤ 30", "unit": "min"}, {"measurement": "effect on thrombin time (TT)", "setting": "thrombin time (TT); intravenous infusion", "value": "rapid, dose-related increase in the thrombin time (TT)"}, {"measurement": "overall terminal elimination half life", "setting": "thrombin time (TT); plasma, i.v.", "value": "about 4 hours"}, {"measurement": "safety assessments", "setting": "thrombin time (TT); single i.v. doses 82, 130, 120 mg", "value": "No clinically significant findings"}, {"measurement": "adverse clinical events", "setting": "thrombin time (TT); study period of 24 hours, any dose", "value": "no adverse clinical events of either a general or cardiovascular nature"}, {"measurement": "thrombin time at pharmacodynamic C max", "setting": "thrombin time and APTT; listed as TRI 50c sodium salt", "value": 154, "unit": "s"}, {"measurement": "thrombin time at pharmacodynamic C max", "setting": "thrombin time and APTT", "value": 154.4, "unit": "s"}, {"measurement": "Thrombin time", "setting": "thrombin time and APTT; one hour post dose", "value": 26, "unit": "s"}, {"measurement": "elevation in the APTT", "setting": "thrombin time and APTT; post dose", "value": 1.3, "unit": "times"}, {"measurement": "tolerance", "setting": "thrombin time and APTT; total duration of the study", "value": "tolerated well with no adverse events"}, {"measurement": "Thrombin clotting time elevation above base line", "setting": "thrombin time and APTT; two minutes following dosing", "value": 10.8, "unit": "times"}, {"measurement": "APTT post dose", "setting": "thrombin time and APTT; from 19 seconds", "value": 25, "unit": "s"}]}]}
